Test results taken from article PMC5015959, “The Binding of Plasmodium falciparum Adhesins and Erythrocyte Invasion Proteins to Aldolase Is Enhanced by Phosphorylation” (PLoS ONE, 2016).
pKd: −log10 of the molar value. Where no end group is shown, it is not given here. The star is where a group is joined. Biotin = O=C1N[C@H]2[C@H](CS[C@H]2CCCCC(=O)*)N1

What was measured:
CDPK1 = test: In vitro phosphorylation of CTDs by CDPK1; assay type: biochemical; design: key: Phosphorylation (+) was confirmed by electrospray-mass spectrometry; conditions: 10 μM kinase, 100 μM substrate, 1 mM ATP, 30°C, 3 hours; electrospray-mass spectrometry
Protocol: To examine whether or not phosphorylation affected the ability of the CTDs to bind aldolase, we first looked at their ability to be phosphorylated by serine/threonine kinases in vitro. Two kinases, CDPK1 and PKA, which have been implicated in phosphorylation of glideosome proteins, were chosen for this analysis (Table 2).
(§1) The phosphorylation of MTRAP and TRAP CTDs expressed as fusion proteins with GST was evaluated in vitro by ^32P incorporation (Fig 1A) and by electrospray (ES) mass spectrometry and collision-induced dissociation (CID) fragmentation analysis. […] Using ES-MS and CID it was determined that both CDPK1 and PKA phosphorylated AMA1 at Ser610 (S1B and S2B Figs), the residue implicated in earlier studies. […] CDPK1 but not PKA phosphorylated EBA140 (Table 2, S2E Fig), the exact sites of which were not determined (S1E Fig). […]
(§2) Phosphorylation assays were performed using 10 μM recombinant CDPK1 [37], PKA (Promega), or CK2 (New England Biolabs) in kinase buffer (20 mM Tris-HCl pH 8.0, 20 mM MgCl2, with or without 1 mM CaCl2) and 1 mM ATP at 30°C for 3 hours with 100 μM substrate protein. Products were analysed by mass spectrometry and used in binding assays (see below). […]
Non-phosphorylated, phosphorylated and biotinylated polypeptides were analysed by electrospray (ES)-mass spectrometry and collision-induced dissociation (CID) fragmentation pathway analysis. […]

P. falciparum aldolase = biological target: T1, P. falciparum aldolase (Plasmodium falciparum, UniProt Q7KQL9); test: biochemical; assay type: binding; conditions: for increase in affinity for aldolase following phosphorylation: phosphorylated versus unmodified CTD, from Kd values of Table 3
T1 construct: made in house
T1 sequence (Q7KQL9 whole entry): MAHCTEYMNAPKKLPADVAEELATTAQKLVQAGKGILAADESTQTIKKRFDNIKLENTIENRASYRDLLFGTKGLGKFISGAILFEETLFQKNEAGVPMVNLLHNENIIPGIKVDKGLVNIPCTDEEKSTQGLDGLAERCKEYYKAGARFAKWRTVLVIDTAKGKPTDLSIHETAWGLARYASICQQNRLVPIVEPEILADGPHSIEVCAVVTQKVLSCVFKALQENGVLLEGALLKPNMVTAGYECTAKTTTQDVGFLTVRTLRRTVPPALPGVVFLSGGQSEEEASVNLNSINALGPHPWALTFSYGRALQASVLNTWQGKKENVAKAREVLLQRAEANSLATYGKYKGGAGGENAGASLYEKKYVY
From the text: CTDs of four classes of type 1 membrane protein (AMA1 and the TRAP, EBL and RH families) that are potential adhesins or host cell invasion proteins derived from apical organelles, and present in the merozoite plasma membrane during invasion, were examined for their ability to bind to aldolase using bio-layer interferometry. Streptavidin-coated biosensors were loaded with biotinylated synthetic peptides or recombinant proteins representing either the full length CTDs or shorter C-terminal sequences (Table 1) and titrated with increasing aldolase concentrations. This analysis enabled the calculation of a dissociation constant (Kd) for each pair of proteins as a measure of the strength of interaction between them.
The effect of the CTD phosphorylation on aldolase binding was investigated using biolayer interferometry using phosphorylated synthetic peptides or peptides phosphorylated in vitro (Table 3).
Protein interactions were analysed by biolayer interferometry using the Octet Red system (ForteBio) at 25°C in 96-well microplates, as described previously. All assays were performed in 100 mM Tris-HCl pH 8.0, according to the manufacturer’s instructions. A baseline was established over 1 min, and biotinylated samples were loaded onto streptavidin sensors for 1 min. The sensors were washed for 1 min and then incubated with aldolase at different concentrations (0.05–250 μM) for 1 min, followed by a dissociation phase over 5 min. The experiments were performed in duplicate or triplicate depending on the experiment. The data were analysed as described previously.

CK2 = test: In vitro phosphorylation of CTDs by CK2; assay type: biochemical; conditions: 10 μM kinase, 100 μM substrate, 1 mM ATP, 30°C, 3 hours; ES-MS and CID
Protocol: as §1, with “analysis. […] MTRAP CTD produced as either a recombinant protein or as a synthetic peptide was also phosphorylated by PKA at the same two positions (S2A Fig).” for “analysis.”
as §2
Non-phosphorylated, phosphorylated and biotinylated polypeptides were analysed by electrospray (ES)-mass spectrometry and collision-induced dissociation (CID) fragmentation pathway analysis. […] Phosphorylation sites were determined using stand-alone nanospray on an LTQ Orbitrap Velos (Thermo Fisher Scientific). […]

Substance	CTD peptide phosphorylation by CDPK1 in vitro (CDPK1)	pKd (P. falciparum aldolase; biolayer interferometry (Octet Red), biotinylated CTD on streptavidin sensor, aldolase 0.05–250 μM, 100 mM Tris-HCl pH 8.0, 25°C, mean of duplicate reactions)	increase in affinity for aldolase following phosphorylation (P. falciparum aldolase)	phosphorylation by CK2 in vitro (CK2)
Biotin-KNNKQEYDKEQEKQQQNDFVCDNNKMDDKSTQKYGRNQEEVMEIFFDNDYI [RH1 2921–2971]	+	5.21	around 2 fold	
Biotin-KNSNEPHHIFNIFQKEFSEADNAHSEEKEEYLPVYFDEVEDEVEDEVEDEDENENEVENENEDFNDI [RH4, cytoplasmic domain of RH4, residues 1650–1716]			no increase in affinity	one phosphate group
